Assay results from PubChem BioAssay AID248 (DTP/NCI, 2004).
Where “and” joins values, the source holds several entries; their conditions need not be identical. Equal entries are not always repeated. Inconclusive results and toxic doses are left out. No stated cut-off is given here; in the data, active means T/C of 150% or more; inactive means T/C below 125%.

System: L1210 leukemia ip in BDF1 mice, survival T/C
Assay: NCI In Vivo Anticancer Drug Screen. Data for tumor model L1210 Leukemia (intraperitoneal) in B6D2F1 (BDF1) mice
Conditions: endpoint: mean survival time, higher = longer survival
Method in brief: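 In this screen, tumor-bearing mice given compound are compared to those given vehicle, and their survival values are reported as a treated-to-control quotient.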

[1] = dose: 50.0 mg/kg/injection, schedule: Q01DX009 (ip), vehicle: saline with Tween-80
[2] = dose: 100.0 mg/kg/injection, schedule: Q01DX009 (ip), vehicle: saline with Tween-80
[3] = dose: 100.0 mg/kg/injection, schedule: Q04DX003 (ip), vehicle: saline with Tween-80
[4] = dose: 100.0 mg/kg/injection, schedule: Q01DX001 (ip), vehicle: saline
[5] = dose: 200.0 mg/kg/injection, schedule: Q01DX001 (ip), vehicle: saline
[6] = dose: 400.0 mg/kg/injection, schedule: Q01DX001 (ip), vehicle: saline
[7] = dose: 100.0 mg/kg/injection, schedule: Q01DX009 (ip), vehicle: Klucel (hydroxypropylcellulose) (HPC)
[8] = dose: 200.0 mg/kg/injection, schedule: Q01DX009 (ip), vehicle: Klucel (hydroxypropylcellulose) (HPC)
[9] = dose: 400.0 mg/kg/injection, schedule: Q01DX009 (ip), vehicle: Klucel (hydroxypropylcellulose) (HPC)
[10] = dose: 100.0 mg/kg/injection, schedule: Q04DX002 (ip), vehicle: saline with Tween-80
[11] = dose: 200.0 mg/kg/injection, schedule: Q04DX002 (ip), vehicle: saline with Tween-80
[12] = dose: 400.0 mg/kg/injection, schedule: Q04DX002 (ip), vehicle: saline with Tween-80
[13] = dose: 50.0 mg/kg/injection, schedule: Q01DX009 (ip), vehicle: saline
[14] = dose: 100.0 mg/kg/injection, schedule: Q01DX001 (ip), vehicle: saline with Tween-80
[15] = dose: 100.0 mg/kg/injection, schedule: Q01DX009 (ip), vehicle: saline
[16] = dose: 100.0 mg/kg/injection, schedule: Q04DX003 (ip), vehicle: saline
[17] = dose: 200.0 mg/kg/injection, schedule: Q01DX001 (ip), vehicle: saline with Tween-80
[18] = dose: 200.0 mg/kg/injection, schedule: Q01DX009 (ip), vehicle: saline
[19] = dose: 200.0 mg/kg/injection, schedule: Q04DX003 (ip), vehicle: saline
[20] = dose: 200.0 mg/kg/injection, schedule: Q01DX009 (ip), vehicle: saline with Tween-80
[21] = dose: 400.0 mg/kg/injection, schedule: Q01DX009 (ip), vehicle: saline with Tween-80
[22] = dose: 400.0 mg/kg/injection, schedule: Q04DX003 (ip), vehicle: saline

Measured: T/C

CCOc1ccnc(OCC)n1
inactive: dose: 25.0 mg/kg/injection, schedule: Q01DX009 (ip), vehicle: saline with Tween-80 86 % of control | dose: 25.0 mg/kg/injection, schedule: Q04DX003 (ip), vehicle: saline with Tween-80 95 % of control | [1] 100 % of control | dose: 50.0 mg/kg/injection, schedule: Q04DX003 (ip), vehicle: saline with Tween-80 97 % of control | [2] 91 % of control | [3] 106 % of control

CC(=O)Nc1cc(C(C)=O)ccc1O
inactive: dose: 100.0 mg/kg/injection, schedule: Q04DX003 (ip), vehicle: Klucel (hydroxypropylcellulose) (HPC) 106 % of control | dose: 200.0 mg/kg/injection, schedule: Q04DX003 (ip), vehicle: Klucel (hydroxypropylcellulose) (HPC) 98 % of control | dose: 400.0 mg/kg/injection, schedule: Q04DX003 (ip), vehicle: Klucel (hydroxypropylcellulose) (HPC) 103 % of control

Cc1ccc(S(=O)(=O)NNC(=O)c2ccccc2NCCO)cc1
inactive: [4] 101 % of control | [5] 101 % of control | [6] 103 % of control

CNC(=S)N/N=C/c1ccc(N(C)CCC#N)cc1
inactive: [7] 96 % of control | [8] 93 % of control

O=C(C[n+]1ccccc1Br)c1cccc2ccccc12
inactive: dose: 9.38 mg/kg/injection, schedule: Q01DX001 (ip), vehicle: other 103 % of control

O=C(c1ccc(-c2ccccc2)cc1)C1CC1
inactive: [7] 97 % of control | [8] 97 % of control | [9] 91 % of control

CC(=O)OCCCCOC(C)=O
inactive: [4] 105 % of control | [5] 109 % of control | [6] 107 % of control

COc1ccc(OC)c(CC=O)c1
inactive: dose: 100.0 mg/kg/injection, schedule: Q04DX003 (ip), vehicle: alcohol 97 % of control | dose: 200.0 mg/kg/injection, schedule: Q04DX003 (ip), vehicle: alcohol 101 % of control | dose: 400.0 mg/kg/injection, schedule: Q04DX003 (ip), vehicle: alcohol 103 % of control

CNC(=S)N(C)c1ccccc1
inactive: dose: 100.0 mg/kg/injection, schedule: Q04DX002 (ip), vehicle: Klucel (hydroxypropylcellulose) (HPC) 100 % of control | dose: 200.0 mg/kg/injection, schedule: Q04DX002 (ip), vehicle: Klucel (hydroxypropylcellulose) (HPC) 107 % of control | dose: 400.0 mg/kg/injection, schedule: Q04DX002 (ip), vehicle: Klucel (hydroxypropylcellulose) (HPC) 104 % of control

O=C1CCC(Cc2cccc3ccccc23)N1 (stereo not drawn)
inactive: [10] 97 % of control | [11] 91 % of control | [12] 94 % of control

CCOC(=O)c1cnc2ccccn2c1=O
inactive: [13] 96 % of control | [14] 92 % of control | [15] 93 % of control | [16] 92 % of control | [17] 94 % of control | [18] 101 % of control | [19] 94 % of control

Cc1cc(=O)cc(C)n1C
inactive: [2] 96 % of control | [20] 100 % of control | [21] 92 % of control

C[Si](C)(C)O[Si](C)(C)c1ccccc1
inactive: [13] 102 % of control | [15] 88 % of control | [16] 103 % of control | [18] 99 % of control | [19] 109 % of control | dose: 400.0 mg/kg/injection, schedule: Q01DX009 (ip), vehicle: saline 96 % of control | [22] 95 % of control

Nc1nn(-c2ccccc2)c(N)c1N=Nc1ccccc1
inactive: dose: 50.0 mg/kg/injection, schedule: Q01DX009 (ip), vehicle: Klucel (hydroxypropylcellulose) (HPC) 98 % of control | [7] 98 % of control | [8] 98 % of control

C=C1C(=O)O[C@@H]2C[C@@H](C)[C@@H]3[C@@H](OC4OC(COC(C)=O)C(O)C(O)C4O)CC(=O)[C@@]3(C)C[C@H]12 (stereo partly drawn)
inactive: dose: 6.4 mg/kg/injection, schedule: Q01DX009 (ip), vehicle: saline 101 % of control | dose: 9.6 mg/kg/injection, schedule: Q01DX009 (ip), vehicle: saline 97 % of control | dose: 14.0 mg/kg/injection, schedule: Q01DX009 (ip), vehicle: saline 104 % of control | dose: 22.0 mg/kg/injection, schedule: Q01DX009 (ip), vehicle: saline 98 % of control | [3] 100 % of control | dose: 200.0 mg/kg/injection, schedule: Q04DX003 (ip), vehicle: saline with Tween-80 89 % of control | dose: 400.0 mg/kg/injection, schedule: Q04DX003 (ip), vehicle: saline with Tween-80 94 % of control

O=C(CCl)c1cnc2ccccc2n1
inactive: dose: 5.0 mg/kg/injection, schedule: Q01DX009 (ip), vehicle: saline 102 % of control | dose: 5.0 mg/kg/injection, schedule: Q04DX003 (ip), vehicle: saline 103 % of control | dose: 10.0 mg/kg/injection, schedule: Q01DX009 (ip), vehicle: saline 98 % of control | dose: 10.0 mg/kg/injection, schedule: Q04DX003 (ip), vehicle: saline 100 % of control | dose: 20.0 mg/kg/injection, schedule: Q01DX009 (ip), vehicle: saline 93 % of control | dose: 20.0 mg/kg/injection, schedule: Q04DX003 (ip), vehicle: saline 100 % of control

CN(C)c1ccc(C=Nc2cccc([N+](=O)[O-])c2)cc1
inactive: dose: 100.0 mg/kg/injection, schedule: Q01DX001 (ip), vehicle: Klucel (hydroxypropylcellulose) (HPC) 91 % of control | dose: 200.0 mg/kg/injection, schedule: Q01DX001 (ip), vehicle: Klucel (hydroxypropylcellulose) (HPC) 86 % of control | dose: 400.0 mg/kg/injection, schedule: Q01DX001 (ip), vehicle: Klucel (hydroxypropylcellulose) (HPC) 90 % of control

N#C/C(=C\C=C\c1ccccc1)c1cccc(Cl)c1
inactive: dose: 87.5 mg/kg/injection, schedule: Q01DX009 (ip), vehicle: Klucel (hydroxypropylcellulose) (HPC) 89 % of control | dose: 175.0 mg/kg/injection, schedule: Q01DX009 (ip), vehicle: Klucel (hydroxypropylcellulose) (HPC) 92 % of control | dose: 350.0 mg/kg/injection, schedule: Q01DX009 (ip), vehicle: Klucel (hydroxypropylcellulose) (HPC) 101 % of control

Cc1ccc(CN(C)C)c(C(O)(c2ccccc2)c2ccccc2)c1
inactive: dose: 50.0 mg/kg/injection, schedule: Q01DX001 (ip), vehicle: carboxymethylcellulose (CMC) 96 % of control | dose: 100.0 mg/kg/injection, schedule: Q01DX001 (ip), vehicle: carboxymethylcellulose (CMC) 107 % of control | dose: 200.0 mg/kg/injection, schedule: Q01DX001 (ip), vehicle: carboxymethylcellulose (CMC) 100 % of control | dose: 400.0 mg/kg/injection, schedule: Q01DX001 (ip), vehicle: carboxymethylcellulose (CMC) 96 % of control

Cc1nc2c(C(N)=O)nc(C)n2nc1C
inactive: dose: 50.0 mg/kg/injection, schedule: Q04DX002 (ip), vehicle: saline with Tween-80 93 % of control | [14] 103 % of control | [10] 105 % of control and 107 % of control | [17] 106 % of control | [11] 121 % of control | dose: 400.0 mg/kg/injection, schedule: Q01DX001 (ip), vehicle: saline with Tween-80 111 % of control | [12] 99 % of control | dose: 600.0 mg/kg/injection, schedule: Q01DX001 (ip), vehicle: saline with Tween-80 110 % of control

O=C(NCc1cnccn1)c1ccc(Cl)c(Cl)c1
inactive: [2] 98 % of control | [20] 98 % of control | [21] 106 % of control

Nc1nc2nc3c(nc2c(=O)[nH]1)CN(C1CCCCC1)C3=O
inactive: dose: 75.0 mg/kg/injection, schedule: Q01DX001 (ip), vehicle: carboxymethylcellulose (CMC) 96 % of control | dose: 150.0 mg/kg/injection, schedule: Q01DX001 (ip), vehicle: carboxymethylcellulose (CMC) 94 % of control

Cc1c(C)c(C(=O)O)c(C)c(C)c1C(=O)O
inactive: [2] 96 % of control | [20] 97 % of control | [21] 102 % of control

C=CCC(CO)(c1ccccc1)c1ccccc1
inactive: [1] 97 % of control | [2] 87 % of control | [20] 97 % of control

CCCCCCCC(=O)NCCCC
inactive: [7] 105 % of control | [16] 99 % of control | [8] 95 % of control | [19] 101 % of control | [9] 109 % of control | [22] 99 % of control
